Where two headings read alike, the source gives them in different places. [BNANC] = BNA^NC bridged nucleic acid nucleotide; {ThiolC6} = thiol C6 linker; d = 2'-deoxy (DNA)
Tests used:
apoB [1] = assay: apoB gene silencing in Huh7 cells (qPCR); format: cell-based, human; details: hepatocytes with very low ASGPR1 expression (Huh7)
Description: Primary hepatocytes which highly express ASGPR1 (ASGPR1^high) and Huh7 hepatocyte cell line (low ASGPR1 expression) were treated with a concentration range of trivalent-GalNAc-ApoBBNA (TrivalentGalNAc-ApoBBNA), either in absence or presence of 300 nM trivalent-GalNAc-SO1861 (TrivalentGalNAc-SPT001) (FIGS. 20A and B).
In addition, the primary hepatocytes and the liver cells of cell line Huh7 were contacted with a concentration series of a saponin-oligonucleotide-ASGPR ligand conjugate, i.e. trivalent GalNAc conjugated with both SO1861 (DAR is 4, in a dendron with four SO1861 molecules) and ApoB BNA (SEQ ID NO: 2) ((GalNAc)3-dSPT4-ApoB (FIG. 20E), or TrivalentGalNAc-ApoBBNA-dendron(SO1861)4), and apoB mRNA expression was assessed (FIGS. 20A and B).
ApoB gene silencing in HepG2 (ASGPR1+) cells or Huh7 (ASGPR1^+/−) was determined.
RNA from cells was isolated and analysed according to standard protocols (Biorad). qPCR primers that were used are indicated in Table A2.
RNA from cells was isolated using TRI Reagent® Solution (Thermo Scientific) according to the manufacturer's instruction. Conversion into cDNA was performed using iScript™ cDNA Synthesis Kit (BioRad) using standard protocols. […]

apoB [2] = assay: apoB mRNA expression in primary human hepatocytes (qPCR); format: cell-based; details: for IC50: primary human hepatocytes, read-out: IC50 apoB RNA levels
Description: (§1) Cryopreserved primary human hepatocytes (Cytes Biotechnologies S.L., Spain) were thawed in hepatocyte thawing media (Cytes Biotechnologies S.L., Spain). […] Cells were pre-cultured for 4-6 hrs at 37° C. allowing for cell attachment to cell culture plates before the start of treatment. Plating medium was replaced by 315 μl or 108 μl maintenance media (Cytes Biotechnologies S.L., Spain), after which conjugates were added from a 10× concentrated stock solution in PBS. Plates were incubated for 72 hr at 37° C. being harvested for gene expression and cell viability analysis.
as §1

LDL-cholesterol = assay: Serum LDL-cholesterol (LDL-C) analysis in C57BL/6J mice; format: in vivo
Description: (§2) • i. Dose administration and in-life phase. Per group, 8 C57BL/6J male mice for treatment groups (in Study A, 14 mice in vehicle control group), approximately 6-7 weeks at arrival and 8-9 weeks at dosing, were dosed. The compounds, formulated in PBS or PBS alone (vehicle) according to Table A5 and Table A6, were dosed at 5 ml/kg in the tail vain (intravenously, i.v.), with dose volumes corresponding to the individual bodyweights. Where applicable, trivalent (GalNAc)3-SO1861 (EMCH) was co-administered at 5 ml/kg in the tail vain (i.v.) right after the trivalent GalNAc-ApoB conjugate. Animals were weighed weekly and clinical observations were performed 2-3 times daily within the first 48 hrs, and at least once daily thereafter until study end. • ii. Sampling of serum, liver, and kidney tissue. […] At the relevant inter-study post-dose timepoints, 3 animals per timepoint per treatment group (6 animals in the vehicle control group in Study A) were sacrificed to collect terminal bleeds and collect relevant organs, such as liver and kidney tissues for further analyses. at end of study, the remaining 2 animals (4 in the control group in Study A) per group were sacrificed. One half of the liver and one kidney was frozen and used for tissue RNA analysis.
LDL-cholesterol was measured in mouse serum, using an LDL-cholesterol specific two-step AU480 assay kit, respectively, from Beckman Coulter, with a photometric measurement according to the manufacturer's instructions.

[3] = In vivo tolerability (clinical observations, body weight) in C57BL/6J mice; details: Study A; doses and regimens of Table A5, i.v.
Description: as §2

apoB [4] = assay: ApoB expression analysis in liver tissue of C57BL/6J mice (qRT-PCR); format: in vivo; details: for reduction of apoB RNA levels (gene expression) in liver compared to vehicle / reduction of apoB expression in liver compared to vehicle: Study A; for reduction of apoB RNA levels (gene expression) in liver compared to vehicle: 24 hrs
Description: as §2
The mRNA was isolated from frozen liver tissue using TRIzol® Reagent (Thermo Scientific) according to the manufacturer's instruction. Conversion into cDNA was performed using iScript™ cDNA Synthesis Kit (BioRad). ApoB expression levels and levels of specific liver housekeeping genes were determined using quantitative real-time PCR assays (qRT-PCR) using iTaq™ Universal SYBR® Green Supermix (BioRad) and the Light Cycler 480 (Roche Diagnostics, Rotkreuz, Switzerland) with specific DNA primers, listed in Table A4 (Study A) and Table A7 (Study B), respectively. Analysis was done by the ΔCt method to determine apoB expression relative to 2 liver-specific housekeeping control mRNAs. Each analysis reaction was performed in triplicate.

[5] = Endosomal escape enhancing activity of saponin; details: compared with SO1861

In the case of “(GalNAc)3-dSPT4-ApoB: trivalent GalNAc conjugated with a dendron with four SO1861 moieties and ApoB BNA (SEQ ID NO: 2) via trifunctional linker (GCCTCAGTCTGCTTCGCACC; BNA oligo conjugated to trivalent GalNAc and dendron of four SO1861 saponins, further chemistry not given here)”, the “response: apoB mRNA silencing” value (apoB [1]; low nM, conjugate alone) is reported as “not responsive” and the “apoB gene (mRNA) silencing potency, factor higher than the GalNAc-ApoB BNA conjugate lacking covalently linked saponin” value (apoB [2]; primary hepatocytes, concentration series) is reported as ~100.

In the case of “ApoB#02 BNA: BNA^NC antisense oligonucleotide 5′-GCattggtatTCA-3′ [SEQ ID NO: 12], fully phosphorothioated, 5′-Thiol C6 linker (GCATTGGTATTCA; sugars from the 5' end [BNANC]2 d8 [BNANC]3, all phosphorothioate, 5' {ThiolC6}, methylation of C not given here)”, the “reduction of serum LDL-C compared to vehicle” value (LDL-cholesterol; Study A, 2 mg/kg, 72 hrs) is reported as ~50%, the “reduction of serum LDL-C compared to vehicle” value (LDL-cholesterol; Study A, 2 mg/kg, 336 hrs) is reported as ~40% and the “serum LDL-C levels compared to vehicle (in words)” value (LDL-cholesterol; Study A, 0.1, 1, or 2 mg/kg, 24 hrs) is reported as “not noticeably reduced”. The “serum LDL-C level” value (LDL-cholesterol; Study B, 2 mg/kg, 72 hrs post-dose) was 2 mg/dL, the “tolerability (adverse findings, clinical observations)” value [3] was “well tolerated” and the IC50 (apoB [2]; relative ApoB#02 BNA concentration, without transfection agent) was 400 nM. The IC50 (apoB [2]; transfection with RNAi-MAX) was 8 nM, the “reduction of apoB RNA levels (gene expression) in liver compared to vehicle” value (“reduction of apoB RNA levels” below) (apoB [4]; 0.1 mg/kg i.v.) was “not noticeably reduced” and the “reduction of apoB RNA levels” value (apoB [4]; 1 mg/kg i.v.) was ~15%. For the same compound, the “reduction of apoB RNA levels” value (apoB [4]; 2 mg/kg i.v.) was ~21%, the “reduction of apoB expression in liver compared to vehicle” value (apoB [4]; 2 mg/kg, 72 hrs) was 39% and the “reduction of apoB expression in liver compared to vehicle” value (apoB [4]; 2 mg/kg, 336 hrs) was 30%. The “apoB RNA levels (gene expression) in liver, % of vehicle control” value (apoB [4]; Study B, 2 mg/kg, 72 hrs) was 53%.

With “TrivalentGalNAc-ApoBBNA: conjugate of trivalent GalNAc and the ApoB antisense BNA oligonucleotide ApoBBNA (SEQ ID NO: 2); L or S linker not stated (GCCTCAGTCTGCTTCGCACC; BNA oligonucleotide conjugated to trivalent GalNAc, pattern not explicitly stated, further chemistry not given here)” the “response: apoB mRNA silencing” value (apoB [1]; low nM + trivalentGalNAc-SPT001) was “not responsive”.

With `CC(=O)OC1C(C)OC(OC2C(C)OC(OC(=O)[C@]34CCC(C)(C)CC3C3=CCC5[C@@]6(C)CC[C@H](OC7OC(C(=O)O)C(O)C(OC8OCC(O)C(O)C8O)C7OC7OC(CO)C(O)C(O)C7O)[C@@](C)(C=O)C6CC[C@@]5(C)[C@]3(C)C[C@H]4O)C(OC3OC(C)C(OC4OCC(O)C(OC5OCC(O)C(O)C5O)C4O)C(O)C3O)C2O)C(O)C1OC1OCC(O)C(O)C1O` (some centres unmarked) [SO1832] the “endosomal escape enhancing activity towards an oligonucleotide (or protein toxin) in the endosome” value [5] was “about equally active as SO1861”.
